Tests used:
human mu opioid receptor [1] = target: T1, human mu opioid receptor (Homo sapiens, UniProt P35372); assay: biochemical; assay type: binding
T1 construct: host or cells: CHO-K1

human mu opioid receptor [2] = target: T1, human mu opioid receptor; assay: biochemical; conditions: read-out: intrinsic activity (IA), bound GTP-Eu relative to DAMGO (IA=100)
[3] = tested on: loperamide-induced delayed gastric emptying; assay: Rat gastric emptying assay (reversal of loperamide-induced delayed gastric emptying); assay type: in vivo; conditions: administered orally, loperamide 1 mg/kg s.c.

T1 sequence (P35372 whole entry): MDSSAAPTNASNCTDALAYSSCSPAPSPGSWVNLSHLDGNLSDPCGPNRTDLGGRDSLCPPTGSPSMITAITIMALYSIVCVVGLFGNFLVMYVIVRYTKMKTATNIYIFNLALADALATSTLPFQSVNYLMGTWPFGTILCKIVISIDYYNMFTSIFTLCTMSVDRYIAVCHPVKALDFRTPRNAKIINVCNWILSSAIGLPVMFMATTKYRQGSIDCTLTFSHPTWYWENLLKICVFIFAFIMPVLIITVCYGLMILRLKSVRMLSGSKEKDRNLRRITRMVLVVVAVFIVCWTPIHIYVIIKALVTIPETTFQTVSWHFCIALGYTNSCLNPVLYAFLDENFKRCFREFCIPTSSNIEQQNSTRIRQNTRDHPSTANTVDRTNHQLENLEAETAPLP

How did the “pKi at the human mu opioid receptor” value (human mu opioid receptor [1]) turn out when `CCC(CC)CN(CCCN1[C@@H]2CC[C@H]1C[C@@H](c1cccc(C(N)=O)c1)C2)C(=O)CO` [Example 1, 3-endo-(8-{3-[(2-ethylbutyl)-(2-hydroxyacetyl)-amino]propyl}-8-aza-bicyclo[3.2.1]oct-3-yl)-benzamide] was run?
The value was 10.0.

What about the Emax (human mu opioid receptor [2]) of the same compound?
Its Emax is 3%.

And the “ID50, dose required for 50% reversal of the effects of loperamide” value [3]?
The value was 0.29 mg/kg.

With `CCC(CC)CN(CCCN1[C@@H]2CC[C@H]1C[C@@H](c1cccc(C(N)=O)c1)C2)C(=O)CS(C)(=O)=O` [Example 6, 3-endo-(8-{3-[(2-ethylbutyl)-(2-methanesulfonyl-acetyl)amino]propyl}-8-azabicyclo[3.2.1]oct-3-yl)-benzamide] as the compound, how does the Ki (human mu opioid receptor [1]) read?
Its Ki is 0.126 nM.

And the Emax (human mu opioid receptor [2])?
The Emax was 1%.

With `CCC(CC)CN(CCN1[C@@H]2CC[C@H]1C[C@@H](c1cccc(C(N)=O)c1)C2)C(=O)CS(C)(=O)=O` [Example 7, 3-endo-(8-{2-[(2-ethylbutyl)-(2-methanesulfonyl-acetyl)amino]ethyl}-8-azabicyclo[3.2.1]oct-3-yl)-benzamide] as the compound, how does the Ki (human mu opioid receptor [1]) read?
The Ki was 0.158 nM.

And the Emax (human mu opioid receptor [2])?
Its Emax is 3%.

And the “ID50, dose required for 50% reversal of the effects of loperamide” value [3]?
The value was 0.53 mg/kg.

Source: patent US8518966B2, “Amidoalkyl-8-azabicyclo[3.2.1]octane compounds as mu opioid receptor antagonists” (Theravance, Inc., priority 2007, dated 2013)
